Source: patent US20140193831A1, “SEED TRAIT PREDICTION BY ACTIVITY-BASED PROTEIN PROFILING” (GAUTIER SEMENCES, priority 2011, published 2014)

Assays:
seed proteins = experiment: ABPP labelling of a tomato seed extract with four fluorescent probes in parallel (FIG. 2); format: biochemical; details: plant seed extract, 2 μM probe, buffers NaOAc pH 5.5 or Tris pH 7.6 with 1 mM DTT
diagnostic marker 4 = experiment: Single seed-ABPP of unprimed and primed tomato seeds with MV151 (FIG. 17); format: biochemical; details: 4 hours, Tris pH 7.5
Text: A: Structure of MV151 (see also FIG. 7). This probe consists of a vinylsulfonate (VS) reactive groups, a leucine tripeptide binding group as linker, and a fluorescence bodipy reporter tag (left grey circle) (MV151: Verdoes et al., (2006) Chem. Biol. 13: 1217-1226). B: MV151 was used for detection of a diagnostic marker for primed seeds in tomato. […] Proteins were separated on 14% protein gels and analyzed by scanning for fluorescent proteins (ex 532 nm/em 575 nm) and stained with coomassie. […] This is an Example of successful identification of primed seeds by ABPP of the present invention without need for germination of the seeds.

Question: Which “labelling of seed proteins on fluorescence gel” value (seed proteins) does the source give for COc1ccc(C2=[N+]3C(=Cc4c(C)c(CCC(=O)NCCCCCC(=O)NCCCCCC(=O)NCCCCCC(=O)N[C@@H](CC(C)C)C(=O)N[C@@H](CC(C)C)C(=O)N[C@H](/C=C/S(C)(=O)=O)CC(C)C)c(C)n4[B-]3(F)F)C=C2)cc1 [MV151] here?
Answer: Robust labelling

Question: And the “seeds in which diagnostic marker 4 is detected” value (diagnostic marker 4; primed A1 seeds, 14 of 14, 2 μM probe)?
Answer: 100%

Question: What about the “seeds in which diagnostic marker 4 is detected” value (diagnostic marker 4; unprimed A1 seeds, 4 of 14, 2 μM probe) of the same compound?
Answer: 36%
